Assay results taken from US7115589B2, “Purine derivatives” (ARIAD Pharmaceuticals, Inc., priority 1999, dated 2006).

- melting point: 117 to 118 °C
SMILES: CCOP(=O)(OCC)c1ccc(Nc2nc(C3CCCC3)nc3c2ncn3C(C)C)cc1
